Read-outs that look alike come from different tables or passages of the source. One block for each compound: values may come before it.
What was measured:
[1] = tested on: MX-1 (human breast carcinoma) cells; assay: In vitro growth inhibition (cytotoxicity, CellTiter Blue Cell Viability Assay); format: cell-based; settings: cells exposed 72 hr
Description: A cytotoxicity assay was quantitated using the Promega CellTiter Blue Cell Viability Assay. Briefly, cells (5000 cells/well) were plated onto 96-well microtiter plates in RPMI 1640 medium supplemented with 10% FBS and incubated at 37° C. in a humidified 5% CO2 atmosphere. After 24 hr., cells were exposed to various concentrations of hydrophobic taxane derivative in DMSO and cultured for another 72 hr, 100 uL of media were removed and 20 uL of Promega CellTiter Blue reagent were added to each well and shaken to mix. After 4 hours of incubation at 37° C. in a humidified 5% CO2 atmosphere, the plates were read at 544 ex/620 em. The fluorescence produced is proportional to the number of viable cells. After plotting fluorescence produced against drug concentration, the IC50 was calculated as the […] of the resulting non-linear regression.

[2] = Log P of hydrophobic taxane derivatives; format: physicochemical; settings: method not stated
[3] = Pharmacokinetics of Nab-2 in monkeys; format: in vivo; settings: cynomolgus monkey; for AUCINF/D / Cmax/D / HL_Lambda_z / AUC(0-inf) / Cmax / Tmax / concentration at 0 hr / concentration at […] / concentration at 0.25 hr / concentration at 0.5 hr / concentration at 1 hr / concentration at 2 hr / concentration at 8 hr: label = analyte; for AUC(0-inf) / Cmax / Tmax / concentration at 0 hr / concentration at […] / concentration at 0.25 hr / concentration at 0.5 hr / concentration at 1 hr / concentration at 2 hr / concentration at 8 hr / clearance / Vd: male, blood; for concentration at […]: time 0.083 hr; for Vd: iv
Excerpt: The day of the initial dose administration was designated Study Day 1, with subsequent days consecutively numbered. Days on study prior to the initial dose administration were consecutively numbered with the final day of acclimation referenced as day −1.
Three non-naïve, male cynomolgus monkeys, confirmed to have no prior exposure to albumin, were assigned to dose groups as specified in Table 6 shown below. Animals weighed 5.4-6.7 kg and were 4 to 7 years of age at study initiation.
All animals were dosed once weekly, on days 1, 8 and 15. Animals in Groups 3 and 4 were administered Nab-2 (lot: ABI139-2-83) at 5 and 10 mg/kg, respectively, and the Group 5 animal was administered Nab-2 at 20, 10 and 10 mg/kg (on days 1, 8 and 15, respectively) via 30 minute intravenous infusion. Clinical observations were performed twice daily and body weights were recorded weekly throughout the study.

SMILES: CC(=O)O[C@@]12CO[C@@H]1C[C@H](O)[C@@]1(C)C(=O)[C@H](O)C3=C(C)[C@@H](OC(=O)[C@H](OC(=O)c4ccccc4)[C@@H](NC(=O)OC(C)(C)C)c4ccccc4)C[C@@](O)([C@@H](OC(=O)c4ccccc4)C12)C3(C)C (stereo partly drawn) [Compound 1, 2′-Benzoyl-Docetaxel]
IC50 [1]: 38.4 µM | logP [2]: 6.67

SMILES: CCCCC(=O)O[C@@H](C(=O)O[C@H]1C[C@@]2(O)[C@@H](OC(=O)c3ccccc3)C3[C@](C)(C(=O)[C@H](O)C(=C1C)C2(C)C)[C@@H](O)C[C@H]1OC[C@@]31OC(C)=O)[C@@H](NC(=O)OC(C)(C)C)c1ccccc1 (stereo partly drawn) [Compound 4, 2′-Valeryl-Docetaxel]
IC50 [1]: 211 µM | logP [2]: 6.37

logP [2]: 5.31
SMILES: CCC(=O)O[C@@H](C(=O)O[C@H]1C[C@@]2(O)[C@@H](OC(=O)c3ccccc3)C3[C@](C)(C(=O)[C@H](O)C(=C1C)C2(C)C)[C@@H](O)C[C@H]1OC[C@@]31OC(C)=O)[C@@H](NC(=O)OC(C)(C)C)c1ccccc1 (stereo partly drawn) [Compound 5, 2′-Propionyl-Docetaxel]
IC50 [1]: 209 µM

SMILES: CC(=O)O[C@@]12CO[C@@H]1C[C@H](O)[C@@]1(C)C(=O)[C@H](O)C3=C(C)[C@@H](OC(=O)[C@H](O)[C@@H](NC(=O)OC(C)(C)C)c4ccccc4)C[C@@](O)([C@@H](OC(=O)c4ccccc4)C12)C3(C)C (stereo partly drawn) [Docetaxel, docetaxel, reference compound]
Log P [2]: 4.20 | AUCINF/D ([3]; Nab-2 IV 5 mg/kg): 35 kg·ng·h/mL/mg | Cmax/D ([3]; Nab-2 IV 5 mg/kg): 8 kg·ng/mL/mg | HL_Lambda_z ([3]; Nab-2 IV 5 mg/kg): 1.4 h | AUCINF/D ([3]; Nab-2 IV 10 mg/kg): 31 kg·ng·h/mL/mg | Cmax/D ([3]; Nab-2 IV 10 mg/kg): 10 kg·ng/mL/mg | HL_Lambda_z ([3]; Nab-2 IV 10 mg/kg): 3.2 h | AUCINF/D ([3]; Nab-2 IV 20 mg/kg): 20 kg·ng·h/mL/mg | Cmax/D ([3]; Nab-2 IV 20 mg/kg): 19 kg·ng/mL/mg | HL_Lambda_z ([3]; Nab-2 IV 20 mg/kg): 1.4 h | AUC(0-inf) ([3]; Nab-2 IV 5 mg/kg): 175 ng·h/mL | Cmax ([3]; Nab-2 IV 5 mg/kg): 41 ng/mL | Tmax ([3]; Nab-2 IV 5 mg/kg): 15 min | concentration at 0 hr ([3]; Nab-2 IV 5 mg/kg): 0 ng/mL | concentration at […] ([3]; Nab-2 IV 5 mg/kg): 36.7 ng/mL | concentration at 0.25 hr ([3]; Nab-2 IV 5 mg/kg): 40.7 ng/mL | concentration at 0.5 hr ([3]; Nab-2 IV 5 mg/kg): 35.5 ng/mL | concentration at 1 hr ([3]; Nab-2 IV 5 mg/kg): 32.1 ng/mL | concentration at 2 hr ([3]; Nab-2 IV 5 mg/kg): 34.1 ng/mL | concentration at 8 hr ([3]; Nab-2 IV 5 mg/kg): 1.15 ng/mL | AUC(0-inf) ([3]; Nab-2 IV 10 mg/kg): 314 ng·h/mL | Cmax ([3]; Nab-2 IV 10 mg/kg): 99 ng/mL | concentration at 0 hr ([3]; Nab-2 IV 10 mg/kg): 0 ng/mL | concentration at […] ([3]; Nab-2 IV 10 mg/kg): 99.4 ng/mL | concentration at 0.25 hr ([3]; Nab-2 IV 10 mg/kg): 70.1 ng/mL | concentration at 0.5 hr ([3]; Nab-2 IV 10 mg/kg): 63.4 ng/mL | concentration at 1 hr ([3]; Nab-2 IV 10 mg/kg): 47.5 ng/mL | concentration at 2 hr ([3]; Nab-2 IV 10 mg/kg): 44.2 ng/mL | concentration at 8 hr ([3]; Nab-2 IV 10 mg/kg): 0 ng/mL | AUC(0-inf) ([3]; Nab-2 IV 20 mg/kg): 394 ng·h/mL | Cmax ([3]; Nab-2 IV 20 mg/kg): 382 ng/mL | concentration at 0 hr ([3]; Nab-2 IV 20 mg/kg): 0 ng/mL | concentration at […] ([3]; Nab-2 IV 20 mg/kg): 382 ng/mL | concentration at 0.25 hr ([3]; Nab-2 IV 20 mg/kg): 232 ng/mL | concentration at 0.5 hr ([3]; Nab-2 IV 20 mg/kg): 157 ng/mL | concentration at 1 hr ([3]; Nab-2 IV 20 mg/kg): 90.5 ng/mL | concentration at 2 hr ([3]; Nab-2 IV 20 mg/kg): 69.2 ng/mL | concentration at 8 hr ([3]; Nab-2 IV 20 mg/kg): 0 ng/mL

SMILES: CCCCCC(=O)O[C@@H](C(=O)O[C@H]1C[C@@]2(O)[C@@H](OC(=O)c3ccccc3)C3[C@](C)(C(=O)[C@H](O)C(=C1C)C2(C)C)[C@@H](O)C[C@H]1OC[C@@]31OC(C)=O)[C@@H](NC(=O)OC(C)(C)C)c1ccccc1 (stereo partly drawn) [Compound 2, 2′-Hexanoyl Docetaxel]
IC50 [1]: 103 µM | logP [2]: 6.44 | AUCINF/D ([3]; Nab-2 IV 5 mg/kg): 723 kg·ng·h/mL/mg | Cmax/D ([3]; Nab-2 IV 5 mg/kg): 215 kg·ng/mL/mg | HL_Lambda_z ([3]; Nab-2 IV 5 mg/kg): 3.6 h | AUCINF/D ([3]; Nab-2 IV 10 mg/kg): 535 kg·ng·h/mL/mg | Cmax/D ([3]; Nab-2 IV 10 mg/kg): 155 kg·ng/mL/mg | HL_Lambda_z ([3]; Nab-2 IV 10 mg/kg): 3.7 h | AUCINF/D ([3]; Nab-2 IV 20 mg/kg): 393 kg·ng·h/mL/mg | Cmax/D ([3]; Nab-2 IV 20 mg/kg): 131 kg·ng/mL/mg | HL_Lambda_z ([3]; Nab-2 IV 20 mg/kg): 3.0 h | clearance ([3]; Nab-2 IV 5 mg/kg): 23.1 mL/min/kg | AUC(0-inf) ([3]; Nab-2 IV 5 mg/kg): 3610 ng·h/mL | Cmax ([3]; Nab-2 IV 5 mg/kg): 1070 ng/mL | Tmax ([3]; Nab-2 IV 5 mg/kg): 4.98 min | concentration at 0 hr ([3]; Nab-2 IV 5 mg/kg): 0 ng/mL | concentration at […] ([3]; Nab-2 IV 5 mg/kg): 1070 ng/mL | concentration at 0.25 hr ([3]; Nab-2 IV 5 mg/kg): 940 ng/mL | concentration at 0.5 hr ([3]; Nab-2 IV 5 mg/kg): 774 ng/mL | concentration at 1 hr ([3]; Nab-2 IV 5 mg/kg): 534 ng/mL | concentration at 2 hr ([3]; Nab-2 IV 5 mg/kg): 422 ng/mL | concentration at 8 hr ([3]; Nab-2 IV 5 mg/kg): 136 ng/mL | clearance ([3]; Nab-2 IV 10 mg/kg): 31.2 mL/min/kg | AUC(0-inf) ([3]; Nab-2 IV 10 mg/kg): 5350 ng·h/mL | Cmax ([3]; Nab-2 IV 10 mg/kg): 1550 ng/mL | Tmax ([3]; Nab-2 IV 10 mg/kg): 4.98 min | concentration at 0 hr ([3]; Nab-2 IV 10 mg/kg): 0 ng/mL | concentration at […] ([3]; Nab-2 IV 10 mg/kg): 1550 ng/mL | concentration at 0.25 hr ([3]; Nab-2 IV 10 mg/kg): 1300 ng/mL | concentration at 0.5 hr ([3]; Nab-2 IV 10 mg/kg): 936 ng/mL | concentration at 1 hr ([3]; Nab-2 IV 10 mg/kg): 734 ng/mL | concentration at 2 hr ([3]; Nab-2 IV 10 mg/kg): 657 ng/mL | concentration at 8 hr ([3]; Nab-2 IV 10 mg/kg): 202 ng/mL | clearance ([3]; Nab-2 IV 20 mg/kg): 42.4 mL/min/kg | AUC(0-inf) ([3]; Nab-2 IV 20 mg/kg): 7860 ng·h/mL | Cmax ([3]; Nab-2 IV 20 mg/kg): 2620 ng/mL | Tmax ([3]; Nab-2 IV 20 mg/kg): 15 min | concentration at 0 hr ([3]; Nab-2 IV 20 mg/kg): 0 ng/mL | concentration at […] ([3]; Nab-2 IV 20 mg/kg): 2390 ng/mL | concentration at 0.25 hr ([3]; Nab-2 IV 20 mg/kg): 2620 ng/mL | concentration at 0.5 hr ([3]; Nab-2 IV 20 mg/kg): 1820 ng/mL | concentration at 1 hr ([3]; Nab-2 IV 20 mg/kg): 1370 ng/mL | concentration at 2 hr ([3]; Nab-2 IV 20 mg/kg): 958 ng/mL | concentration at 8 hr ([3]; Nab-2 IV 20 mg/kg): 264 ng/mL | Vd ([3]; 5 mg/kg, Nab-2 IV 5 mg/kg, read-out: Vss): 5.84 L/kg | Vd ([3]; 5 mg/kg, Nab-2 IV 5 mg/kg, read-out: Vz): 7.18 L/kg | Vd ([3]; 10 mg/kg, Nab-2 IV 10 mg/kg, read-out: Vss): 8.12 L/kg | Vd ([3]; 10 mg/kg, Nab-2 IV 10 mg/kg, read-out: Vz): 9.93 L/kg | Vd ([3]; 20 mg/kg, Nab-2 IV 20 mg/kg, read-out: Vss): 8.74 L/kg | Vd ([3]; 20 mg/kg, Nab-2 IV 20 mg/kg, read-out: Vz): 11.2 L/kg | Vd ([3]; Nab-2 IV 5-20 mg/kg, read-out: volume of distribution Vz): 7 to 11 L/kg

SMILES: CCCCCCCCCC(=O)O[C@@H](C(=O)O[C@H]1C[C@@]2(O)[C@@H](OC(=O)c3ccccc3)C3[C@](C)(C(=O)[C@H](O)C(=C1C)C2(C)C)[C@@H](O)C[C@H]1OC[C@@]31OC(C)=O)[C@@H](NC(=O)OC(C)(C)C)c1ccccc1 (stereo partly drawn) [Compound 3, 2′-Decanoyl-Docetaxel]
IC50 [1]: 8.8 µM
